# Source: US6586000B2, “Hydroxide-releasing agents as skin permeation enhancers” (Dermatrends, Inc., priority 1999, dated 2003)
# Assay: In vitro permeation of oxytocin solution through NaOH-pretreated skin, Franz-type diffusion cells
# Format: in vitro ADME, human
# Procedure: (§1) The volume of receiver solution was 8 ml. […] Eighteen diffusion cells were used in this study. A 2% NaOH aqueous solution (50 μl) was introduced to the donor chambers of nine cells (cells #1 to 9) and a 4% NaOH aqueous solution (50 μl) was introduced to the donor chambers of the other nine cells (cells #10 to 18). Once the NaOH solution is applied, the donor chamber was covered with parafilm.
# After 5 hours, the NaOH solution was washed away from the skin for 3 cells (cells #1 to 3) that were treated with 2% NaOH solution and 3 cells (cells #10 to 12) that were treated with 4% NaOH solution. […] After 24 hours, the NaOH solution was washed away from the skin for 3 cells (cells #7 to 9) that were treated with 2% NaOH solution and 3 cells (cells #16 to 18) that were treated with 4% NaOH solution. To wash away the NaOH solution, the receiving fluid was removed and replaced with fresh DI water. This was done twice. DI water was added to the donor chamber to dilute the NaOH solution and then the donor solution was removed. This was repeated several times.
# After the NaOH solution was washed away from the skin, the solution in the donor chamber was completely removed and replaced by 50 μl of an oxytocin solution. Once the oxytocin solution is applied, the donor chamber was covered with parafilm.
# The cells were filled with DI water as a receiver solution. The DI water had been degased to remove air bubbles. […] The samples taken were analyzed by HPLC for the concentration of oxytocin in the receiver solution. The cumulative amount of oxytocin across human cadaver skin was calculated using the measured oxytocin concentrations in the receiver solutions for each time point, which were listed in Table 46.
# as §1, with “0.25%” for “2%”, “A 1.0%” for “a 4%”
# After 5 hours, the NaOH solution was washed away from the skin for 3 cells (cells #1 to 3) that were treated with […] and 3 cells (cells #10 to 12) that were treated with 1.0% NaOH solution. After 11 hours, the NaOH solution was washed away from the skin for 3 cells (cells #4 to 6) that were treated with 0.25% NaOH solution and 3 cells (cells #13 to 15) that were treated with 1.0% NaOH solution. After 24 hours, the NaOH solution was washed away from the skin for 3 cells (cells #7 to 9) that were treated with 0.25% NaOH solution and 3 cells (cells #16 to 18) that were treated with 1.0% NaOH solution. To wash away the NaOH solution, the receiving fluid was removed and replaced with fresh DI water. This was done twice. DI water was added to the donor chamber to dilute the NaOH solution and then the donor solution was removed. This was repeated several times until the pH of donor solution was less than 8.
# The cells were filled with DI water as a receiver solution. The DI water has been degased to remove air bubbles. […] The cumulative amount of oxytocin across human cadaver skin was calculated using the measured oxytocin concentrations in the receiver solutions for each time point, which were listed in Table 48.
compound,measurement,setting,value
"CC[C@H](C)[C@@H]1NC(=O)[C@H](Cc2ccc(O)cc2)NC(=O)[C@@H](N)CSSC[C@@H](C(=O)N2CCC[C@H]2C(=O)N[C@@H](CC(C)C)C(=O)NCC(N)=O)NC(=O)[C@H](CC(N)=O)NC(=O)[C@H](CCC(N)=O)NC1=O [Oxytocin, oxytocin]",Cumulative Amount of Oxytocin Permeated Across Human Cadaver Skin,"skin pretreated by 1.0% NaOH for 5 hr, 4.25 hours",0.45 μg/cm^2
same,Cumulative Amount of Oxytocin Permeated Across Human Cadaver Skin,"skin pretreated by 1.0% NaOH for 5 hr, 24 hours",0.97 μg/cm^2
same,Cumulative Amount of Oxytocin Permeated Across Human Cadaver Skin,"skin pretreated by 1.0% NaOH for 5 hr, […]",0.97 μg/cm^2
same,Cumulative Amount of Oxytocin Permeated Across Human Cadaver Skin,"skin pretreated by 1.0% NaOH for 11 hr, 4.25 hours",53.42 μg/cm^2
same,Cumulative Amount of Oxytocin Permeated Across Human Cadaver Skin,"skin pretreated by 1.0% NaOH for 11 hr, 24 hours",75.36 μg/cm^2
same,Cumulative Amount of Oxytocin Permeated Across Human Cadaver Skin,"skin pretreated by 1.0% NaOH for 11 hr, […]",67.97 μg/cm^2
same,Cumulative Amount of Oxytocin Permeated Across Human Cadaver Skin,"skin pretreated by 1.0% NaOH for 24 hr, 4.25 hours",13.23 μg/cm^2
same,Cumulative Amount of Oxytocin Permeated Across Human Cadaver Skin,"skin pretreated by 1.0% NaOH for 24 hr, 24 hours",30.97 μg/cm^2
same,Cumulative Amount of Oxytocin Permeated Across Human Cadaver Skin,"skin pretreated by 1.0% NaOH for 24 hr, […]",21.06 μg/cm^2
same,Cumulative Amount of Oxytocin Permeated Across Human Cadaver Skin,"skin pretreated by 4% NaOH for 5 hr, 5 hours",118.95 μg/cm^2
same,Cumulative Amount of Oxytocin Permeated Across Human Cadaver Skin,"skin pretreated by 4% NaOH for 5 hr, 15 hours",200.66 μg/cm^2
same,Cumulative Amount of Oxytocin Permeated Across Human Cadaver Skin,"skin pretreated by 4% NaOH for 5 hr, 24 hours",225.52 μg/cm^2
same,Cumulative Amount of Oxytocin Permeated Across Human Cadaver Skin,"skin pretreated by 4% NaOH for 15 hr, 5 hours",202.28 μg/cm^2
same,Cumulative Amount of Oxytocin Permeated Across Human Cadaver Skin,"skin pretreated by 4% NaOH for 15 hr, 15 hours",222.45 μg/cm^2
same,Cumulative Amount of Oxytocin Permeated Across Human Cadaver Skin,"skin pretreated by 4% NaOH for 15 hr, 24 hours",231.58 μg/cm^2
same,Cumulative Amount of Oxytocin Permeated Across Human Cadaver Skin,"skin pretreated by 4% NaOH for 24 hr, 5 hours",193.82 μg/cm^2
same,Cumulative Amount of Oxytocin Permeated Across Human Cadaver Skin,"skin pretreated by 4% NaOH for 24 hr, 15 hours",232.72 μg/cm^2
same,Cumulative Amount of Oxytocin Permeated Across Human Cadaver Skin,"skin pretreated by 4% NaOH for 24 hr, 24 hours",236.80 μg/cm^2
